Our source for the IC90 values is ChEMBL document CHEMBL2150973, “Dual inhibitors for aspartic proteases HIV-1 PR and renin: advancements in AIDS-hypertension-diabetes linkage via molecular dynamics, inhibition assays, and binding free energy calculations” (J Med Chem, 2012).

The assay concerns Human immunodeficiency virus 1. Briefly: microbe, parasite or virus in culture.

Take `CC(C)CN(C[C@@H](O)[C@H](Cc1ccccc1)NC(=O)O[C@H]1CO[C@H]2OCC[C@H]21)S(=O)(=O)c1ccc(N)cc1`: the IC90 came to 4.1 nM.

As usually defined, the IC90 is the point of the concentration-response curve where the effect stands at 90%. Lower therefore signals an effect from little substance.
